Patent US20180214560A1, “HPMA-DRUG CONJUGATES FOR THE TREATMENT OF ACUTE MYELOID LEUKEMIA” (University of Utah Research Foundation, priority 2015, published 2018)
Like-named read-outs stand apart in the source and are kept apart here. One block for each compound: values may come before it.

Tests used:
[1] = test system: HL-60 cells; experiment: Cell cycle analysis by flow cytometry (propidium iodide); format: cell-based, human; details: 48 h; CYT=1 μM; DAU=0.04 μM; GDC=1 μM; JSK=0.5 μM
Protocol: HL-60 cells (2×10^5 cells/mL) were seeded in 6-well plates, and treated with drug alone or different combinations of two drugs at the following concentrations for each: […] JSK=0.5 μM. Following 48-h treatment, cells were harvested, fixed and stained with propidium iodide (PI) at room temperature in the dark. Cell cycle analysis was performed by flow cytometry using BD LSR Fortessa machine (BD Biosciences, San Jose, Calif.). Cell percentages in the different phases of cell cycle were analyzed using FlowJo software (Tree star, Ashland, Oreg.).

[2] = test system: HL-60 human AML cells; experiment: In vitro cytotoxicity (CCK-8 assay); format: cell-based
Protocol: The cytotoxicity of free drugs (CYT, DAU, GDC, and JSK) and two polymeric conjugates (P-CYT, P-GDC) against HL-60 was measured using the CCK-8 assay (Dojindo, Kumamoto, Japan). The cells were seeded in 96-well plates at a density of 20,000 cells/well in RPMI-1640 media containing 2 mM L-glutamine and 10% FBS. Then, 50 μL media containing the drugs were added. The cells were incubated with free drugs (CYT, DAU, GDC, and JSK) or the polymeric conjugates (P-CYT, P-GDC) at a range of drug concentrations. After 48 h incubation, the number of viable cells was estimated using the CCK-8 kit according to manufacturer's protocol. After the cells were incubated with the reagent at 37° C. for 4 h, the absorbance was measured using a microplate reader at 450 nm (630 nm as reference). Viability of treated cells was calculated as a percentage of the viability of untreated controls.

[3] = 37 °C, after 48 h, 100 μg CYT/mL
Protocol: The stability of free and HPMA copolymer-bound cytarabine in human plasma was evaluated. […] At selected time points, 5 μL tetrahydrouridine (THU, 1 mg/mL in DI H2O, used as inhibitor of cytidine deaminase to prevent cytarabine from deamination) was added to a vial containing 100 μL sample. For free drug, 1 mL of mixture of acetonitrile/methanol (9:1) was added to precipitate proteins. The vial was vortex-mixed and then centrifuged at 13,000 g for 10 min at 4° C. The supernatant was carefully transferred into a 2 mL vial that was placed into a 40° C. water bath and bubbled with nitrogen. After organic solvents were removed, the resulting dry residue was dissolved in 0.5 mL DI H2O with 0.1% TFA. The sample was filtered and then 10 μL was injected to an analytical C18 column (Zorbax 300SB, 5 μm, 4.6×250 mm) for HPLC analysis. The amount of intact CYT was calculated based on the area under the curve (AUC) recorded at 268 nm wavelength and calibration curve from a series of standard CYT concentrations. To determine the CYT stability in conjugate, 1-amino-2-propanol (10 μL) was added to the sample prior to plasma precipitation in order to cleave CYT from polymer backbone. Then the sample was examined following the same procedure as described above.

[4] = humans; P-DOX in DOX equivalent; cited from earlier work
[5] = test system: DOX resistant (A2780/AD) human ovarian carcinoma xenografts; details: resistant tumors (A2780/AD); cited from earlier work
[6] = cited from earlier work
[7] = Homo sapiens, HL-60 cells, 48 h incubation, read-out: IC50

- CYT still present in human plasma [3]: all free drug disappeared
Structure (SMILES): Nc1ccn([C@@H]2O[C@H](CO)[C@@H](O)[C@@H]2O)c(=O)n1 [CYT, cytarabine]
- Change of G0/G1 phase population [1]: decrease in the G0/G1 population
- Change of S phase population [1]: arrested the cells in S phase
- IC50 [2, 7]: 1.05 µM

Structure (SMILES): COc1cccc2c1C(=O)c1c(O)c3c(c(O)c1C2=O)C[C@@](O)(C(C)=O)C[C@@H]3O[C@H]1C[C@H](N)[C@H](O)[C@H](C)O1 [DAU, daunorubicin]
- Change of G0/G1 phase population [1]: decrease in the G0/G1 population
- Change of G2/M phase population [1]: accumulate in the G2/M phase
- IC50 ([2]; Homo sapiens, HL-60, 48 h): 0.04 µM

Structure (SMILES): COc1cccc2c1C(=O)c1c(O)c3c(c(O)c1C2=O)C[C@@](O)(C(=O)CO)C[C@@H]3O[C@H]1C[C@H](N)[C@H](O)[C@H](C)O1 [DOX, doxorubicin]
- Maximum tolerated dose (MTD) [4]: 60-80 mg/m2
- Decrease of tumor size [5]: effective only in sensitive tumors

Structure (SMILES): Cc1c(CN2CCN(C(=O)[C@H](C)O)CC2)sc2c(N3CCOCC3)nc(-c3cnc(N)nc3)nc12 [GDC, GDC-0980]
- Change of G0/G1 phase population [1]: slight increase in the G0/G1 phase population
- IC50 [2, 7]: 0.75 µM
- Solubility of free GDC [6]: poor solubility

Structure (SMILES): CCOC(=O)N1CCN(/[N+]([O-])=N/Oc2ccc([N+](=O)[O-])cc2[N+](=O)[O-])CC1 [JSK, JS-K]
- Change of G0/G1 phase population [1]: decrease in the G0/G1 population
- Change of G2/M phase population [1]: did not make significant changes in those fractions
- Change of S phase population [1]: did not make significant changes in those fractions
- IC50 ([2]; HL-60 cells, 48 h incubation, read-out: IC50): 0.44 µM
